Test results from ChEMBL document CHEMBL3885881, “DrugMatrix”.

Species: Rattus norvegicus
Test: DrugMatrix - Regimen: Daily Repeat
Assay type: toxicity, organism-based, Sprague-Dawley
Set-up: regimen Daily Repeat, gender Male, age 6-8 weeks
Details: in vivo, po, route oral GAVAGE, vehicle 100 % WATER; for BASOPHIL / EOSINOPHIL / ERYTHROCYTE COUNT / HEMATOCRIT / HEMOGLOBIN / LEUKOCYTE COUNT / LYMPHOCYTE / MEAN CORPUSCULAR HEMOGLOBIN / MEAN CORPUSCULAR HEMOGLOBIN CONCENTRATION / MEAN CORPUSCULAR VOLUME / MONOCYTE / NEUTROPHIL / PLATELET COUNT: tissue Blood; for ALANINE AMINOTRANSFERASE / ALBUMIN / ALKALINE PHOSPHATASE / ASPARTATE AMINOTRANSFERASE / BLOOD UREA NITROGEN / CARBON DIOXIDE / CHLORIDE / CHOLESTEROL / CREATINE PHOSPHOKINASE / CREATININE / GLUCOSE / LACTATE DEHYDROGENASE / LIPASE / PHOSPHORUS / POTASSIUM / SODIUM / TOTAL BILIRUBIN / TOTAL PROTEIN / URIC ACID: tissue Plasma
[1] = 0 mg/kg, 96 h, dose level Control, time 4 day
[2] = 0 mg/kg, […], dose level Control, time 6 day
[3] = 0 mg/kg, […], dose level Control, time 14 day
[4] = 210 mg/kg, 96 h, dose level High, time 4 day
[5] = 210 mg/kg, […], dose level High, time 6 day
[6] = 210 mg/kg, […], dose level High, time 14 day

## OCC1CO1 (configuration not stated) [GLYCIDOL]
[1]
  BASOPHIL: 0.47%
  EOSINOPHIL: 0.58%
  ERYTHROCYTE COUNT: 6.84 x10E6/uL
  HEMATOCRIT: 44.27%
  HEMOGLOBIN: 14.08 G/DL
  LEUKOCYTE COUNT: 13.39 x10E3/uL
  LYMPHOCYTE: 83.57%
  MEAN CORPUSCULAR HEMOGLOBIN: 20.57 pg
  MEAN CORPUSCULAR HEMOGLOBIN CONCENTRATION: 31.77 G/DL
  MEAN CORPUSCULAR VOLUME: 64.68 fL
  MONOCYTE: 1.92%
  NEUTROPHIL: 12.95%
  PLATELET COUNT: 1533.67 x10E3/uL
  ALANINE AMINOTRANSFERASE: 28.17 u/L
  ALBUMIN: 3.82 G/DL
  ALKALINE PHOSPHATASE: 354.33 u/L
  ASPARTATE AMINOTRANSFERASE: 73.83 u/L
  BLOOD UREA NITROGEN: 16 mg/dL
  CARBON DIOXIDE: 27.17 mmol/L
  CHLORIDE: 104.83 MEQ/L
  CHOLESTEROL: 83.33 mg/dL
  CREATINE PHOSPHOKINASE: 288 u/L
  CREATININE: 0.33 mg/dL
  GLUCOSE: 181.33 mg/dL
  LACTATE DEHYDROGENASE: 173.17 u/L
  LIPASE: 17.67 u/L
  PHOSPHORUS: 11.5 mg/dL
  POTASSIUM: 6.8 MEQ/L
  SODIUM: 147 MEQ/L
  TOTAL BILIRUBIN: 0.35 mg/dL
  TOTAL PROTEIN: 6.35 G/DL
  URIC ACID: 1.55 mg/dL
[2]
  BASOPHIL: 0.33%
  EOSINOPHIL: 0.85%
  ERYTHROCYTE COUNT: 6.98 x10E6/uL
  HEMATOCRIT: 38.58%
  HEMOGLOBIN: 14.25 G/DL
  LEUKOCYTE COUNT: 11.01 x10E3/uL
  LYMPHOCYTE: 85.07%
  MEAN CORPUSCULAR HEMOGLOBIN: 20.47 pg
  MEAN CORPUSCULAR HEMOGLOBIN CONCENTRATION: 31.45 G/DL
  MEAN CORPUSCULAR VOLUME: 64.9 fL
  MONOCYTE: 1.9%
  NEUTROPHIL: 11.42%
  PLATELET COUNT: 1289.67 x10E3/uL
  ALANINE AMINOTRANSFERASE: 28.17 u/L
  ALBUMIN: 3.78 G/DL
  ALKALINE PHOSPHATASE: 385.33 u/L
  ASPARTATE AMINOTRANSFERASE: 78 u/L
  BLOOD UREA NITROGEN: 16.83 mg/dL
  CARBON DIOXIDE: 26.67 mmol/L
  CHLORIDE: 106.83 MEQ/L
  CHOLESTEROL: 82.67 mg/dL
  CREATINE PHOSPHOKINASE: 225.5 u/L
  CREATININE: 0.27 mg/dL
  GLUCOSE: 179.5 mg/dL
  LACTATE DEHYDROGENASE: 98.33 u/L
  LIPASE: 14.67 u/L
  PHOSPHORUS: 12.28 mg/dL
  POTASSIUM: 7.03 MEQ/L
  SODIUM: 150.33 MEQ/L
  TOTAL BILIRUBIN: 0.38 mg/dL
  TOTAL PROTEIN: 6.45 G/DL
  URIC ACID: 1.6 mg/dL
[3]
  BASOPHIL: 0.52%
  EOSINOPHIL: 0.55%
  ERYTHROCYTE COUNT: 7.72 x10E6/uL
  HEMATOCRIT: 51.87%
  HEMOGLOBIN: 15.32 G/DL
  LEUKOCYTE COUNT: 16.2 x10E3/uL
  LYMPHOCYTE: 85.13%
  MEAN CORPUSCULAR HEMOGLOBIN: 19.85 pg
  MEAN CORPUSCULAR HEMOGLOBIN CONCENTRATION: 29.52 G/DL
  MEAN CORPUSCULAR VOLUME: 67.17 fL
  MONOCYTE: 1.7%
  NEUTROPHIL: 11.6%
  PLATELET COUNT: 1104.17 x10E3/uL
  ALANINE AMINOTRANSFERASE: 37 u/L
  ALBUMIN: 4.13 G/DL
  ALKALINE PHOSPHATASE: 342 u/L
  ASPARTATE AMINOTRANSFERASE: 71 u/L
  BLOOD UREA NITROGEN: 16.5 mg/dL
  CARBON DIOXIDE: 28.17 mmol/L
  CHLORIDE: 104 MEQ/L
  CHOLESTEROL: 70.67 mg/dL
  CREATINE PHOSPHOKINASE: 287.67 u/L
  CREATININE: 0.38 mg/dL
  GLUCOSE: 150.17 mg/dL
  LACTATE DEHYDROGENASE: 81.33 u/L
  LIPASE: 16 u/L
  PHOSPHORUS: 11.32 mg/dL
  POTASSIUM: 6.22 MEQ/L
  SODIUM: 147.33 MEQ/L
  TOTAL BILIRUBIN: 0.43 mg/dL
  TOTAL PROTEIN: 6.55 G/DL
  URIC ACID: 1.38 mg/dL
[4]
  BASOPHIL: 0.37%
  EOSINOPHIL: 0.43%
  ERYTHROCYTE COUNT: 6.84 x10E6/uL
  HEMATOCRIT: 44.53%
  HEMOGLOBIN: 13.97 G/DL
  LEUKOCYTE COUNT: 11.04 x10E3/uL
  LYMPHOCYTE: 82.73%
  MEAN CORPUSCULAR HEMOGLOBIN: 20.43 pg
  MEAN CORPUSCULAR HEMOGLOBIN CONCENTRATION: 31.4 G/DL
  MEAN CORPUSCULAR VOLUME: 65.2 fL
  MONOCYTE: 2.77%
  NEUTROPHIL: 12.93%
  PLATELET COUNT: 1402.67 x10E3/uL
  ALANINE AMINOTRANSFERASE: 41.67 u/L
  ALBUMIN: 3.9 G/DL
  ALKALINE PHOSPHATASE: 368 u/L
  ASPARTATE AMINOTRANSFERASE: 81.33 u/L
  BLOOD UREA NITROGEN: 15.33 mg/dL
  CARBON DIOXIDE: 26 mmol/L
  CHLORIDE: 105.33 MEQ/L
  CHOLESTEROL: 107.33 mg/dL
  CREATINE PHOSPHOKINASE: 232 u/L
  CREATININE: 0.4 mg/dL
  GLUCOSE: 184 mg/dL
  LACTATE DEHYDROGENASE: 181 u/L
  LIPASE: 21 u/L
  PHOSPHORUS: 10.67 mg/dL
  POTASSIUM: 6.63 MEQ/L
  SODIUM: 147.33 MEQ/L
  TOTAL BILIRUBIN: 0.37 mg/dL
  TOTAL PROTEIN: 6.6 G/DL
  URIC ACID: 1.53 mg/dL
[5]
  BASOPHIL: 0.33%
  EOSINOPHIL: 0.33%
  ERYTHROCYTE COUNT: 6.72 x10E6/uL
  HEMATOCRIT: 43.03%
  HEMOGLOBIN: 13.67 G/DL
  LEUKOCYTE COUNT: 11.41 x10E3/uL
  LYMPHOCYTE: 88.93%
  MEAN CORPUSCULAR HEMOGLOBIN: 20.37 pg
  MEAN CORPUSCULAR HEMOGLOBIN CONCENTRATION: 31.77 G/DL
  MEAN CORPUSCULAR VOLUME: 64.1 fL
  MONOCYTE: 2.73%
  NEUTROPHIL: 6.93%
  PLATELET COUNT: 1416.33 x10E3/uL
  ALANINE AMINOTRANSFERASE: 34 u/L
  ALBUMIN: 3.93 G/DL
  ALKALINE PHOSPHATASE: 398 u/L
  ASPARTATE AMINOTRANSFERASE: 76.33 u/L
  BLOOD UREA NITROGEN: 15.67 mg/dL
  CARBON DIOXIDE: 24.33 mmol/L
  CHLORIDE: 110 MEQ/L
  CHOLESTEROL: 95.33 mg/dL
  CREATINE PHOSPHOKINASE: 145 u/L
  CREATININE: 0.3 mg/dL
  GLUCOSE: 175.33 mg/dL
  LACTATE DEHYDROGENASE: 95.33 u/L
  LIPASE: 6 u/L
  PHOSPHORUS: 11.3 mg/dL
  POTASSIUM: 6.9 MEQ/L
  SODIUM: 151.67 MEQ/L
  TOTAL BILIRUBIN: 0.37 mg/dL
  TOTAL PROTEIN: 6.67 G/DL
  URIC ACID: 1.63 mg/dL
[6]
  BASOPHIL: 0.43%
  EOSINOPHIL: 1.53%
  ERYTHROCYTE COUNT: 6.88 x10E6/uL
  HEMATOCRIT: 45.62%
  HEMOGLOBIN: 13.7 G/DL
  LEUKOCYTE COUNT: 12.42 x10E3/uL
  LYMPHOCYTE: 88.5%
  MEAN CORPUSCULAR HEMOGLOBIN: 19.93 pg
  MEAN CORPUSCULAR HEMOGLOBIN CONCENTRATION: 30.02 G/DL
  MEAN CORPUSCULAR VOLUME: 66.33 fL
  MONOCYTE: 1.9%
  NEUTROPHIL: 6.83%
  PLATELET COUNT: 1312.75 x10E3/uL
  ALANINE AMINOTRANSFERASE: 34 u/L
  ALBUMIN: 4.45 G/DL
  ALKALINE PHOSPHATASE: 332.5 u/L
  ASPARTATE AMINOTRANSFERASE: 55.5 u/L
  BLOOD UREA NITROGEN: 17 mg/dL
  CARBON DIOXIDE: 27 mmol/L
  CHLORIDE: 105 MEQ/L
  CHOLESTEROL: 100.75 mg/dL
  CREATINE PHOSPHOKINASE: 116.5 u/L
  CREATININE: 0.32 mg/dL
  GLUCOSE: 136.5 mg/dL
  LACTATE DEHYDROGENASE: 63.5 u/L
  LIPASE: 9.75 u/L
  PHOSPHORUS: 12.12 mg/dL
  POTASSIUM: 6.47 MEQ/L
  SODIUM: 148.25 MEQ/L
  TOTAL BILIRUBIN: 0.35 mg/dL
  TOTAL PROTEIN: 7.2 G/DL
  URIC ACID: 1.62 mg/dL
